# pEC50, pIC50: −log10 of the molar value. Where two headings read alike, the source gives them in different places.
# What was measured:
# [1] = target: T1, HIF-2α HIS TAG-PASB Domain (Homo sapiens, UniProt Q99814); assay: HIF-2α Scintillation Proximity Assay (SPA); format: binding; settings: for pIC50: read-out: Scintillation Proximity Assay IC50; for IC50: Scintillation Proximity Assay IC50 (nM)
# T1 construct: 100 nM HIF-2α HIS TAG-PASB Domain
# Procedure, shortened: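 IC50 values rest on percent inhibition, where the sample signal is scaled between high and low controls. Wells contain about 100 μL: compound dispensed as 2 μL of DMSO solution, 88 μL protein-probe mix and 10 μL of beads.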
# 786-O cells = assay: VEGF ELISA Assay; format: cell-based; settings: Homo sapiens, 786-0
# Experimental: Each concentration was plated in duplicate. About 20 hours later, medium was removed by suction and each well was supplied with 180 μL of growth medium. About 20 μl freshly-made 10× compound stocks were added to each well. […] The EC50 was calculated by GraphPad Prism using the dose-response-inhibition (four parameter) equation. The cell-seeded plate was then subjected to CellTiter-Glo luminescence cell viability assay (Promega) by adding 50 μL of Celltiter Glo reagent into each well and shaking the plate for 8 minutes at 550 rpm (Thermomixer R, Eppendorf) then the luminescence signal immediately read in a plate reader (3 second delay, 0.5 second/well integration time, Synergy 2 multi Detection Microplate reader).
# 786-O-Hif-Luc cells = assay: Luciferase Assay (HIF responsive elements reporter)
# Experimental: A pool of infected cells were then selected against 2 μg/mL of puromycin (P8833, Sigma) for 10 days followed by limited dilution to select single clones. […] Each concentration was tested in triplicate. After about 24 hours, luciferase activity was determined using ONE-Glo Luciferase Assay Reagent (E6110, Promega) following the manufacturer's recommended procedure. EC50 were calculated using Dotmatics software.
# [2] = read-out: Mean Luciferase EC50 (nM), 786-O-Hif-Luc cells
# T1 sequence (Q99814 240-350 limits assumed): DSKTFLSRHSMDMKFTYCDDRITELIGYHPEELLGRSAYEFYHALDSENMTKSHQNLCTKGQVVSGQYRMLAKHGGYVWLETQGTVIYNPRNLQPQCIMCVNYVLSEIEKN
pIC50 [1],pEC50 (786-O cells),EC50 (786-O-Hif-Luc cells; [2]) [nM],SMILES,IC50 [1] [nM],EC50 (786-O-Hif-Luc cells; read-out: Mean Luciferase EC50 (nM)) [nM]
6.60 to 7.30,6.60 to 7.30,50 to 249,O=S(=O)(c1ccc(OCCF)c2c1[C@H](O)C(F)(F)C2)C(F)(F)F [Compound 706],–,–
> 7.30,6.60 to 7.30,50 to 249,CS(=O)(=O)c1ccc(O[C@H]2C[C@H](C#N)C2)c2c1[C@H](O)C(F)(F)[C@@H]2F [Compound 760],–,–
> 7.30,6.60 to 7.30,50 to 249,NC1c2c(ccc(Oc3cc(F)cc(F)c3)c2C(F)F)S(=O)(=O)C1(F)F (stereo not drawn) [Compound 365],–,–
> 7.30,> 7.30,< 50,O=S(=O)(c1ccc(OCCCF)c2c1[C@H](O)C(F)(F)C2)C(F)(F)F [Compound 712],–,–
> 7.30,6.60 to 7.30,50 to 249,CS(=O)(=NC#N)c1ccc(Oc2cc(F)cc(F)c2)c2c1C(O)C(F)(F)C2 (stereo not drawn) [Compound 191],–,–
> 7.30,6.60 to 7.30,50 to 249,CS(=O)(=O)c1ccc(O[C@H]2C[C@H](F)C2)c2c1[C@H](O)C(F)(F)[C@@H]2F [Compound 736],–,–
6.60 to 7.30,6.00 to 6.60,50 to 249,N#Cc1cncc(Oc2ccc3c(c2Br)[C@@H](O)C(F)(F)S3(=O)=O)c1 [Compound 424],–,–
> 7.30,6.60 to 7.30,50 to 249,O=S(=O)(c1ccc(OCC2COC2)c2c1[C@H](O)C(F)(F)C2)C(F)(F)F [Compound 713],–,–
> 7.30,> 7.30,< 50,O=S(=O)(c1ccc(Oc2cncc(F)c2)c2c1[C@H](O)C(F)(F)C2)C(F)(F)F [Compound 309],–,–
> 7.30,> 7.30,< 50,O=S(=O)(c1ccc(OCC(F)F)c2c1[C@H](O)C(F)(F)C2)C(F)(F)F [Compound 571],–,–
> 7.30,6.60 to 7.30,50 to 249,O=S(=O)(c1ccc(Oc2cc(F)cc(F)c2)c2c1[C@H](O)CC2)C(F)F [Compound 2],–,–
> 7.30,> 7.30,< 50,O=S(=O)(c1ccc(OC2CCCCC2)c2c1C(O)C(F)(F)C2)C(F)(F)F (stereo not drawn) [Compound 617],–,–
> 7.30,> 7.30,< 50,O=S(=O)(CF)c1ccc(Oc2cc(F)cc(F)c2)c2c1[C@H](O)C(F)(F)C2 [Compound 64],–,–
> 7.30,6.60 to 7.30,50 to 249,CC(C)(C#N)COc1ccc(S(=O)(=O)C(F)(F)F)c2c1CC(F)(F)C2O (stereo not drawn) [Compound 610],–,–
6.60 to 7.30,6.00 to 6.60,50 to 249,CS(=O)(=O)c1ccc(OC2CC(F)(F)C2)c2c1[C@H](O)C(F)(F)C2 [Compound 734],–,–
> 7.30,6.60 to 7.30,50 to 249,N=S1(=O)c2ccc(Oc3cc(F)cc(F)c3)c(C(F)F)c2C(O)C1(F)F (stereo not drawn) [Compound 398],–,–
> 7.30,6.00 to 6.60,250 to 1000,N#Cc1cc(F)cc(Oc2ccc(S(=O)(=O)C(F)F)c(CO)c2Br)c1 [Compound 80],–,–
> 7.30,> 7.30,< 50,O=S(=O)(c1ccc(Oc2ccc(F)cc2)c2c1[C@H](O)C(F)(F)C2)C(F)(F)F [Compound 230],–,–
> 7.30,> 7.30,< 50,O=S(=O)(c1ccc(Oc2cc(F)cc(F)c2)c2c1C(O)C(F)(F)C2)C(F)F (stereo not drawn) [Compound 9],–,–
> 7.30,6.60 to 7.30,< 50,CS(=O)(=O)c1ccc(Oc2cc(F)cc(Br)c2)c2c1[C@H](O)C(F)(F)C2 [Compound 304],–,–
> 7.30,> 7.30,< 50,O=S(=O)(c1ccc(Oc2cncc(Cl)c2)c2c1[C@H](O)C(F)(F)C2)C(F)(F)F [Compound 186],–,–
> 7.30,> 7.30,< 50,O=S(=O)(c1ccc(OCC2CC2)c2c1[C@H](O)C(F)(F)C2)C(F)(F)F [Compound 656],–,–
> 7.30,> 7.30,< 50,N#Cc1cc(F)cc(Oc2ccc(S(=N)(=O)C(F)(F)F)c3c2CC(F)(F)[C@H]3O)c1 (stereo partly drawn) [Compound 305],–,–
> 7.30,> 7.30,< 50,CC(C)COc1ccc(S(=O)(=O)C(F)(F)F)c2c1CC(F)(F)[C@H]2O [Compound 709],–,–
> 7.30,> 7.30,< 50,O=S(=O)(c1ccc(Oc2ccc(F)c(F)c2)c2c1[C@H](O)C(F)(F)C2)C(F)F [Compound 196],–,–

pIC50 [1],pEC50 (786-O cells),EC50 (786-O-Hif-Luc cells; [2]) [nM],SMILES,IC50 [1] [nM],EC50 (786-O-Hif-Luc cells; read-out: Mean Luciferase EC50 (nM)) [nM]
> 7.30,> 7.30,< 50,"N#Cc1cc(F)cc(Nc2ccc(S(=O)(=O)C(F)(F)F)c3c2CC(F)(F)[C@H]3O)c1 [Compound 489, (S)-3-((2,2-difluoro-1-hydroxy-7-((trifluoromethyl)sulfonyl)-2,3-dihydro-1H-inden-4-yl)amino)-5-fluorobenzonitrile]",–,–
> 7.30,6.60 to 7.30,< 50,Cc1cc(C#N)cc(Oc2ccc(S(=O)(=O)CF)c3c2CC(F)(F)[C@H]3O)c1 [Compound 166],–,–
6.60 to 7.30,6.60 to 7.30,50 to 249,O=S1(=O)c2ccc(Oc3cncc(Cl)c3)c(Br)c2[C@@H](O)C1(F)F [Compound 421],–,–
> 7.30,> 7.30,< 50,O[C@H]1c2c(C(F)(F)F)ccc(OCC(F)F)c2CC1(F)F [Compound 579],–,–
> 7.30,> 7.30,< 50,CS(=O)(=NC#N)c1ccc(Oc2cc(F)cc(C#N)c2)c2c1[C@H](O)C(F)(F)[C@@H]2F (stereo partly drawn) [Compound 316],–,–
> 7.30,6.60 to 7.30,50 to 249,O=S(=O)(c1ccc(Nc2cc(F)cc(F)c2)c2c1C(O)C(F)(F)C2)C(F)(F)F (stereo not drawn) [Compound 507],–,–
> 7.30,6.60 to 7.30,< 50,O=S(=O)(c1ccc(OC2CCOCC2)c2c1[C@H](O)C(F)(F)C2)C(F)F [Compound 783],–,–
> 7.30,> 7.30,< 50,CCCOc1ccc(S(=O)(=O)C(F)(F)F)c2c1CC(F)(F)[C@H]2O [Compound 655],–,–
> 7.30,> 7.30,< 50,N#Cc1cc(F)cc(Oc2ccc(C(F)(F)F)c3c2CC(F)(F)[C@H]3O)c1 [Compound 273],–,–
6.60 to 7.30,6.00 to 6.60,50 to 249,N#Cc1cc(Oc2ccc(S(=O)(=O)C(F)(F)F)c3c2CC(F)(F)[C@H]3O)c[n+]([O-])c1 [Compound 267],–,–
6.60 to 7.30,6.00 to 6.60,250 to 1000,O=[N+]([O-])c1c(Oc2cc(F)cc(Cl)c2)ccc(C(F)(F)F)c1Cl [Compound 203],–,–
> 7.30,6.60 to 7.30,50 to 249,O=S(=O)(CF)c1ccc(Oc2cc(F)c(F)c(F)c2)c2c1[C@H](O)C(F)(F)C2 [Compound 188],–,–
> 7.30,> 7.30,< 50,O=S(=O)(CF)c1ccc(O[C@H]2C[C@H](F)C2)c2c1[C@H](O)C(F)(F)[C@@H]2F [Compound 742],–,–
> 7.30,6.60 to 7.30,50 to 249,CS(=O)(=O)c1ccc(O[C@H]2C[C@@H](C#N)C2)c2c1[C@H](O)C(F)(F)[C@@H]2F [Compound 761],–,–
> 7.30,> 7.30,50 to 249,O=S(=O)(CF)c1ccc(Oc2cc(F)cc(F)c2)c2c1[C@H](O)CC2 [Compound 60],–,–
6.60 to 7.30,6.60 to 7.30,50 to 249,O=S(=O)(c1ccc(OC2COC2)c2c1[C@H](O)C(F)(F)C2)C(F)(F)F [Compound 784],–,–
> 7.30,> 7.30,< 50,O=S(=O)(c1ccc(Oc2cc(F)cc(F)c2)c2c1[C@H](O)CC2)C(F)(F)F [Compound 55],–,–
6.00 to 6.60,6.00 to 6.60,> 1000,N#Cc1cc(F)cc(Oc2ccc(S(=O)(=O)C(F)F)cc2Br)c1 [Compound 132],–,–
> 7.30,6.60 to 7.30,50 to 249,O=S(=O)(CF)c1ccc(OC2CC(F)(F)C2)c2c1[C@H](O)[C@H](F)[C@@H]2F [Compound 578],–,–
–,> 7.30,< 50,O=S(=O)(c1ccc(Oc2cc(F)cc(Cl)c2)c2c1C(O)C(F)(F)C2)C(F)F (stereo not drawn) [Compound 8],< 50,–
> 7.30,> 7.30,< 50,O=S(=O)(c1ccc(OC2CC(F)(F)C2)c2c1[C@H](O)C(F)(F)C2)C(F)(F)F [Compound 572],–,–
> 7.30,> 7.30,< 50,O=S(=O)(c1ccc(OC2CCOCC2)c2c1[C@H](O)C(F)(F)C2)C(F)(F)F [Compound 744],–,–
> 7.30,6.60 to 7.30,< 50,N#Cc1cncc(Oc2ccc(C(F)(F)F)c3c2CC(F)(F)[C@H]3O)c1 [Compound 303],–,–
> 7.30,6.60 to 7.30,50 to 249,CS(=O)(=O)c1ccc(O[C@H]2C[C@@H](F)C2)c2c1[C@H](O)C(F)(F)[C@@H]2F [Compound 740],–,–
> 7.30,6.60 to 7.30,< 50,N#Cc1cncc(Oc2ccc(S(=O)(=O)C(F)(F)F)c3c2C[C@@H](F)[C@H]3O)c1 [Compound 225],–,–

SMILES,pIC50 [1],pEC50 (786-O cells),EC50 (786-O-Hif-Luc cells; [2]) [nM],IC50 [1] [nM],EC50 (786-O-Hif-Luc cells; read-out: Mean Luciferase EC50 (nM)) [nM]
O=S1(=O)c2ccc(Oc3cc(F)cc(Cl)c3)c(C(F)(F)F)c2C(O)C1(F)F (stereo not drawn) [Compound 360],–,6.60 to 7.30,–,< 50,50 to 249
